Measurements published in patent US20130296434A1, “FORMULATIONS AND METHODS FOR TREATING AMYLOIDOSIS” (Kiacta Sarl, priority 2005, published 2013).

Legend:
[1] = Pharmacokinetic profile of a single oral dose of 800 mg PDS in subjects with varying degrees of renal impairment vs healthy volunteers; format: in vivo; details: human, plasma, single oral 800 mg; for AUC(0-inf): mean, only subjects with estimable elimination rate constant; for AUC(0-t): read-out: AUC0-Tlast
Description: An open-label, non-randomized, parallel group study to assess the pharmacokinetic profile of a single oral dose of 800 mg 1,3-propanedisulfonic acid disodium salt (PDS) in subjects with varying degrees of renal impairment as compared to healthy volunteers is conducted. Blood and urine samples are collected for 24 hours following dosing. Plasma and urine concentrations in 1,3-propanedisulfonic acid are determined using validated HPLC methods. […] Consequently, a decrease in dose appears to be necessary to maintain an acceptable systemic exposure in patients with impaired renal function.

[2] = Pharmacokinetics of single and repeated oral doses of PDS in healthy male subjects; format: in vivo, human; details: for AUC(0-t) / Cmax / Tmax: male, po, n = 6; for AUC(0-t) / Cmax: mean; for Tmax: median
Excerpt: (§1) In the following examples, terms are as defined below. The pharmacokinetic parameters were derived by non-compartmental analysis using WinNonlin® (Pharsight Corp., Mountain View, Calif., USA). • Cmax—the maximum observed plasma concentration. • Tmax—the time of occurrence of Cmax. • AUC0-t—the area under the plasma concentration versus time curve from time zero to the last sampling time at which concentrations were at or above the limit of quantification, calculated by the linear trapezoidal rule. • AUC∞—the area under the plasma concentrations versus time curve from time zero to infinity, calculated from AUC0-t+(Clast/λz), where Clast is the last observed quantifiable concentration and λz is the apparent terminal rate constant. • t1/2 the apparent terminal half-life, calculated from ln 2/λz
The safety, tolerability and pharmacokinetics of PDS following multiple rising oral doses in healthy male adult volunteers is determined. This is a randomized, double-blind, placebo-controlled study to assess the pharmacokinetic profile of single and repeated oral doses of PDS at 400, 800 and 1600 mg in healthy male subjects. PDS is administered as a single oral dose to healthy male subjects at 400, 800 and 1600 mg on Days 1 and 7. Following the single oral administration on Day 1, PDS is administered on Days 2, 3, 4, 5 and 6 at 400, 800 and 1600 mg four times daily, or 1600 mg three times daily. Blood samples are collected through 24 hours after the dose on Day 1, before the first and last doses on Days 2 through 6, and after 48 hours after the final dose on Day 7. Plasma concentrations of PDS are determined using validated HPLC methods. Following single and repeated oral doses of PDS maximum plasma concentrations are generally reached within 0.25 to 1 hour post-dose. The mean half-life (T1/2) ranges from 5 to 20 hours after single or multiple dosing. Accumulation after multiple dosing is consistent with the T1/2 and dosing frequency.

[3] = Pharmacokinetics of single rising oral doses of PDS and food effect in healthy male subjects; format: in vivo, human; details: for AUC(0-inf) / AUC(0-t) / Cmax / Tmax: male, po; for AUC(0-inf) / AUC(0-t) / Cmax: mean; for Tmax: median
Excerpt: as §1
The safety, tolerability and pharmacokinetics of PDS following single oral administration in healthy male adult volunteers is determined. The effect of food on the pharmacokinetics of PDS is also determined. The first part of the study is a randomized, double-blind, placebo-controlled study to assess the pharmacokinetic profile of 6 single rising oral doses of PDS in healthy male subjects. The second part of this study is an open-label, two-way crossover study to investigate the effect of food on the pharmacokinetic profile of a single oral dose of PDS under fasted and fed conditions. Blood samples are collected during 36 hours following dosing. Plasma concentrations of PDS are determined using validated HPLC methods. […] The extent of systemic exposure (AUC and Cmax) to PDS increases with increasing dose. […] PDS should therefore not be given concomitantly with a high fat meal.

[4] = Healthy, GFR >80 mL/min, n = 6, mean
[5] = Mild renal impairment, GFR 50-80 mL/min, n = 6, mean
[6] = Moderate renal impairment, GFR 30-50 mL/min, n = 4, mean
[7] = Severe renal impairment, GFR <30 mL/min, n = 6, mean
[8] = human, plasma, 400 mg, 400 mg q.i.d. group, Day 1 (single oral administration)
[9] = human, plasma, 400 mg, 400 mg q.i.d., Day 7 (repeated oral administration)
[10] = human, plasma, 800 mg, 800 mg q.i.d. group, Day 1 (single oral administration)
[11] = human, plasma, 800 mg, 800 mg q.i.d., Day 7 (repeated oral administration)
[12] = human, plasma, 1600 mg, 1600 mg q.i.d group, Day 1 (single oral administration)
[13] = human, plasma, 1600 mg, 1600 mg q.i.d, Day 7 (repeated oral administration)
[14] = human, plasma, 1600 mg, 1600 mg t.i.d. group, Day 1 (single oral administration)
[15] = human, plasma, 1600 mg, 1600 mg t.i.d., Day 7 (repeated oral administration)
[16] = human, plasma, 100 mg, single oral 100 mg, healthy male subjects, n = 6
[17] = human, plasma, 200 mg, single oral 200 mg, healthy male subjects, n = 5
[18] = human, plasma, 400 mg, single oral 400 mg, healthy male subjects, n = 5
[19] = human, plasma, 800 mg, single oral 800 mg, healthy male subjects, n = 10
[20] = human, plasma, 1600 mg, single oral 1600 mg (rising dose part), healthy male subjects, n = 5
[21] = human, plasma, 1600 mg, single oral 1600 mg, Fasted, healthy male subjects, n = 8
[22] = human, plasma, 1600 mg, single oral 1600 mg, Fed (high-fat meal), healthy male subjects, n = 8
[23] = human, plasma, 2400 mg, single oral 2400 mg, healthy male subjects, n = 5

With O=S(=O)([O-])CCCS(=O)(=O)[O-].[Na+].[Na+] [PDS, 1,3-propanedisulfonic acid, disodium salt] the AUC(0-inf) ([1]; Healthy, GFR >80 mL/min) was 5370 ng·h/mL, the Cmax [1, 4] was 1240 ng/mL and the AUC(0-t) [1, 4] was 3160 ng·h/mL. The Tmax ([1]; Healthy, GFR >80 mL/min, n = 6, median) was 30 min, the AUC(0-inf) ([1]; Mild renal impairment, GFR 50-80 mL/min) was 13000 ng·h/mL and the Cmax [1, 5] was 3060 ng/mL. For the same compound, the AUC(0-t) [1, 5] was 9110 ng·h/mL, the Tmax ([1]; Mild renal impairment, GFR 50-80 mL/min, n = 6, median) was 30 min and the AUC(0-inf) ([1]; Moderate renal impairment, GFR 30-50 mL/min) was 10700 ng·h/mL. The Cmax [1, 6] was 2100 ng/mL, the AUC(0-t) [1, 6] was 9450 ng·h/mL and the Tmax ([1]; Moderate renal impairment, GFR 30-50 mL/min, n = 4, median) was 30 min. The AUC(0-inf) ([1]; Severe renal impairment, GFR <30 mL/min) was 43100 ng·h/mL, the Cmax [1, 7] was 2210 ng/mL and the AUC(0-t) [1, 7] was 29200 ng·h/mL. The Tmax ([1]; Severe renal impairment, GFR <30 mL/min, n = 6, median) was 150 min, the half-life ([2]; human, plasma, oral, after single or multiple dosing, 400, 800, 1600 mg, healthy male subjects, range of means, read-out: mean half-life (T1/2)) was 300 to 1200 min and the AUC(0-t) [2, 8] was 1590 ng·h/mL. It also gave a Cmax [2, 8] of 496 ng/mL, a Tmax [2, 8] of 60 min and an AUC(0-t) [2, 9] of 10500 ng·h/mL. The Cmax [2, 9] was 995 ng/mL, the Tmax [2, 9] was 15 min and the AUC(0-t) [2, 10] was 5180 ng·h/mL. It also gave a Cmax [2, 10] of 2680 ng/mL, a Tmax [2, 10] of 15 min and an AUC(0-t) [2, 11] of 19900 ng·h/mL. It also gave a Cmax [2, 11] of 1680 ng/mL, a Tmax [2, 11] of 15 min and an AUC(0-t) [2, 12] of 8300 ng·h/mL. For the same compound, the Cmax [2, 12] was 2800 ng/mL, the Tmax [2, 12] was 30 min and the AUC(0-t) [2, 13] was 24500 ng·h/mL. For the same compound, the Cmax [2, 13] was 5480 ng/mL, the Tmax [2, 13] was 15 min and the AUC(0-t) [2, 14] was 7090 ng·h/mL. The Cmax [2, 14] was 2890 ng/mL, the Tmax [2, 14] was 22.5 min and the AUC(0-t) [2, 15] was 25800 ng·h/mL. For the same compound, the Cmax [2, 15] was 4890 ng/mL, the Tmax [2, 15] was 30 min and the “dose dependence of systemic exposure (AUC0-t and Cmax)” value ([2]; single and repeated oral doses 400, 800, 1600 mg, healthy male subjects) was “approximately proportional to the administered dose”. The half-life ([3]; human, plasma, single oral doses 100-2400 mg, healthy male subjects, range of means, read-out: mean half-life (T1/2)) was 120 to 1560 min, the AUC(0-inf) [3, 16] was 419 ng·h/mL and the AUC(0-t) [3, 16] was 240 ng·h/mL. For the same compound, the Cmax [3, 16] was 99.5 ng/mL, the Tmax [3, 16] was 60 min and the AUC(0-t) [3, 17] was 626 ng·h/mL. It also gave a Cmax [3, 17] of 164 ng/mL, a Tmax [3, 17] of 60 min and an AUC(0-inf) [3, 18] of 2900 ng·h/mL. For the same compound, the AUC(0-t) [3, 18] was 1880 ng·h/mL, the Cmax [3, 18] was 1080 ng/mL and the Tmax [3, 18] was 30 min. It also gave an AUC(0-inf) [3, 19] of 4550 ng·h/mL, an AUC(0-t) [3, 19] of 4840 ng·h/mL and a Cmax [3, 19] of 2870 ng/mL. It also gave a Tmax [3, 19] of 30 min, an AUC(0-t) [3, 20] of 8410 ng·h/mL and a Cmax [3, 20] of 4760 ng/mL. It also gave a Tmax [3, 20] of 30 min, an AUC(0-inf) [3, 21] of 12800 ng·h/mL and an AUC(0-t) [3, 21] of 11500 ng·h/mL. It also gave a Cmax [3, 21] of 6460 ng/mL, a Tmax [3, 21] of 30 min and an AUC(0-inf) [3, 22] of 6320 ng·h/mL. The AUC(0-t) [3, 22] was 4010 ng·h/mL, the Cmax [3, 22] was 563 ng/mL and the Tmax [3, 22] was 135 min. It also gave an AUC(0-inf) [3, 23] of 12900 ng·h/mL, an AUC(0-t) [3, 23] of 12000 ng·h/mL and a Cmax [3, 23] of 6050 ng/mL. The Tmax [3, 23] was 30 min, the “effect of food on systemic availability” value ([3]; single oral 1600 mg, fed vs fasted conditions) was “decrease in both the rate and extent of systemic availability” and the “dose dependence of systemic exposure (AUC and Cmax)” value ([3]; single oral doses 100-2400 mg, healthy male subjects) was “reasonably proportional to the administered dose”.
